This assay has as its system HCV replicon. Description: Cell-Based HCV Replicon Assay. Conditions: Hepatitis C virus; HCV Replicon assay, EC90 range, Table VI; read-out: EC90. Put shortly:
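Replicon cells, 5000/well, treated 3 days with 10 serial 2-fold dilutions (top 25 μM to 1 μM) in 0.5% DMSO, 10% FBS. Replicon RNA measured by multiplex Taqman RT-PCR (NS5B amplicon, GAPDH control); EC50/EC90 = concentration giving ΔCT of 1/3.2 over baseline from sigmoid fit.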
(In general: Replicon systems follow genome replication, usually without infectious particles.)

Structures are written as SMILES.

The EC90 is the concentration at which the effect reaches the 90% level.

As to `CO[C@@H](CNc1nc(C)c(-c2nc3c(C)nccc3s2)c(N[C@@H]2C[C@H](CO)[C@@H](O)[C@H]2O)n1)c1ccc(F)cc1` [Example 5226], the EC90 is less than 500 nM. With `CO[C@@H](CNc1nc(C)c(-c2nc3c(C4CC4)nccc3s2)c(N[C@@H]2C[C@H](CO)[C@@H](O)[C@H]2O)n1)c1ccc(F)cc1` [Example 5227] the figure was less than 500 nM; with `CO[C@@H](CNc1nc(C)c(-c2nc3cnccc3s2)c(N[C@@H]2C[C@H](C(C)(C)O)[C@@H](O)[C@H]2O)n1)c1ccc(F)cc1` [Example 5228], less than 500 nM. With `CO[C@@H](CNc1nc(C)c(-c2nc3c(C)nccc3s2)c(N[C@@H]2C[C@H](C(C)(C)O)[C@@H](O)[C@H]2O)n1)c1ccc(F)cc1` [Example 5229], the EC90 was less than 500 nM. The result for `CO[C@@H](CNc1nc(C)c(-c2nc3c(C)nccc3s2)c(N[C@@H]2C[C@H](CO)[C@@H](O)[C@H]2O)n1)C(F)(F)F` [Example 5230] reads less than 500 nM; that for `CO[C@@H](CNc1nc(C)c(-c2nc3c(C4CC4)nccc3s2)c(N[C@@H]2C[C@H](CO)[C@@H](O)[C@H]2O)n1)C(F)(F)F` [Example 5231], less than 500 nM. The result for `CO[C@@H](CNc1nc(C)c(-c2nc3c(C)nccc3s2)c(N[C@@H]2C[C@H](C(C)(C)O)[C@@H](O)[C@H]2O)n1)C(F)(F)F` [Example 5232] reads less than 500 nM.

As for `CCO[C@@H](CNc1nc(C)c(-c2nc3c(C)nccc3s2)c(N[C@@H]2C[C@H](CO)[C@@H](O)[C@H]2O)n1)C(F)(F)F` [Example 5233], the EC90 is less than 500 nM.

In the case of `CCO[C@@H](CNc1nc(C)c(-c2nc3c(C4CC4)nccc3s2)c(N[C@@H]2C[C@H](CO)[C@@H](O)[C@H]2O)n1)C(F)(F)F` [Example 5234], the EC90 is less than 500 nM. `CCO[C@@H](CNc1nc(C)c(-c2nc3c(C)nccc3s2)c(N[C@@H]2C[C@H](C(C)(C)O)[C@@H](O)[C@H]2O)n1)C(F)(F)F` [Example 5235]: the EC90 is less than 500 nM. The result for `Cc1nc(NCc2c(F)cc(F)cc2F)nc(N[C@@H]2C[C@H](C3(O)CC3)[C@@H](O)[C@H]2O)c1-c1nc2c(C)nccc2s1` [Example 5236] reads less than 500 nM; that for `Cc1nc(NCCSC(C)(C)C)nc(N[C@@H]2C[C@H](C3(O)CC3)[C@@H](O)[C@H]2O)c1-c1nc2c(C)nccc2s1` [Example 5237], less than 500 nM; that for `CO[C@H](C)CNc1nc(C)c(-c2nc3c(C)nccc3s2)c(N[C@@H]2C[C@H](C3(O)CC3)[C@@H](O)[C@H]2O)n1` [Example 5238], less than 500 nM. On to `Cc1nc(NCC2CC2)nc(N[C@@H]2C[C@H](C3(O)CC3)[C@@H](O)[C@H]2O)c1-c1nc2c(C)nccc2s1` [Example 5239], for which the EC90 is less than 500 nM. `COC[C@@H](C)Nc1nc(C)c(-c2nc3c(C)nccc3s2)c(N[C@@H]2C[C@H](C3(O)CC3)[C@@H](O)[C@H]2O)n1` [Example 5240]: the concentration for an effect of 90% (EC90) was less than 500 nM. For `CSCCNc1nc(C)c(-c2nc3c(C)nccc3s2)c(N[C@@H]2C[C@H](C(C)(C)O)[C@@H](O)[C@H]2O)n1` [Example 5241], the EC90 is less than 500 nM. In the case of `Cc1nc(N)nc(N[C@@H]2C[C@H](C(C)(C)O)[C@@H](O)[C@H]2O)c1-c1nc2c(C)nccc2s1` [Example 5242], the EC90 is less than 500 nM. On to `CCOCCNc1nc(C)c(-c2nc3c(C)nccc3s2)c(N[C@@H]2C[C@H](C(O)(COC)COC)[C@@H](O)[C@H]2O)n1` [Example 5243], for which the EC90 is less than 500 nM.

For the compound `COC[C@@H](C)Nc1nc(C)c(-c2nc3c(C)nccc3s2)c(N[C@@H]2C[C@H](C(O)(COC)COC)[C@@H](O)[C@H]2O)n1` [Example 5244], the EC90 was less than 500 nM. On to `COCC(O)(COC)[C@H]1C[C@@H](Nc2nc(NC[C@@H](C)OC)nc(C)c2-c2nc3c(C)nccc3s2)[C@H](O)[C@@H]1O` [Example 5245], for which the EC90 is less than 500 nM. Turning to `COCC(O)(COC)[C@H]1C[C@@H](Nc2nc(NCC3CC3)nc(C)c2-c2nc3c(C)nccc3s2)[C@H](O)[C@@H]1O` [Example 5246], the EC90 is less than 500 nM. In the case of `COCC(O)(COC)[C@H]1C[C@@H](Nc2nc(NCc3c(F)cc(F)cc3F)nc(C)c2-c2nc3c(C)nccc3s2)[C@H](O)[C@@H]1O` [Example 5247], the EC90 was less than 500 nM. Consider `CCC(O)(CC)[C@H]1C[C@@H](Nc2nc(NCCSC(C)(C)C)nc(C)c2-c2nc3c(C)nccc3s2)[C@H](O)[C@@H]1O` [Example 5248], for which the EC90 was less than 500 nM. As for `Cc1nc(NCCS(C)(=O)=O)nc(N[C@@H]2C[C@H](C(C)(C)O)[C@@H](O)[C@H]2O)c1-c1nc2c(C)nccc2s1` [Example 5249], the EC90 lay within 500 to 5000 nM.

Regarding `Cc1nc(NCCS(=O)(=O)C(C)(C)C)nc(N[C@@H]2C[C@H](C(C)(C)O)[C@@H](O)[C@H]2O)c1-c1nc2c(C)nccc2s1` [Example 5250], the EC90 is less than 500 nM. Take `CSCC[C@@H](CO)Nc1nc(C)c(-c2nc3c(C)nccc3s2)c(N[C@@H]2C[C@H](C(C)(C)O)[C@@H](O)[C@H]2O)n1` [Example 5251]: the EC90 is less than 500 nM. For `Cc1nc(NCc2cn(C)cn2)nc(N[C@@H]2C[C@H](C(C)(C)O)[C@@H](O)[C@H]2O)c1-c1nc2c(C)nccc2s1` [Example 5252], the EC90 was less than 500 nM. The result for `CCSC[C@@H](C)Nc1nc(C)c(-c2nc3c(C)nccc3s2)c(N[C@@H]2C[C@H](C(C)(C)O)[C@@H](O)[C@H]2O)n1` [Example 5253] reads less than 500 nM; that for `Cc1nc(N[C@H](C)CSC(C)(C)C)nc(N[C@@H]2C[C@H](C(C)(C)O)[C@@H](O)[C@H]2O)c1-c1nc2c(C)nccc2s1` [Example 5254], less than 500 nM. Consider `CCS[C@H](C)CNc1nc(C)c(-c2nc3c(C)nccc3s2)c(N[C@@H]2C[C@H](C(C)(C)O)[C@@H](O)[C@H]2O)n1` [Example 5255], for which the EC90 was less than 500 nM. For the compound `Cc1nc(N[C@H](C)COC(C)C)nc(N[C@@H]2C[C@H](C(C)(C)O)[C@@H](O)[C@H]2O)c1-c1nc2c(C)nccc2s1` [Example 5256], the EC90 was less than 500 nM. In the case of `COC1(CNc2nc(C)c(-c3nc4c(C)nccc4s3)c(N[C@@H]3C[C@H](C(C)(C)O)[C@@H](O)[C@H]3O)n2)CC1` [Example 5257], the EC90 was less than 500 nM.

As to `Cc1nc(N)nc(N[C@@H]2C[C@H](CO)[C@@H](O)[C@H]2O)c1-c1nc2c(C3CC3)nccc2s1` [Example 5258], the EC90 is less than 500 nM. As for `Cc1nc(NC[C@@H](C)OC(C)C)nc(N[C@@H]2C[C@H](C(C)(C)O)[C@@H](O)[C@H]2O)c1-c1nc2c(C)nccc2s1` [Example 5259], the EC90 is less than 500 nM.

As for `C#CCCNc1nc(C)c(-c2nc3c(C)nccc3s2)c(N[C@@H]2C[C@H](C(C)(C)O)[C@@H](O)[C@H]2O)n1` [Example 5260], the EC90 was less than 500 nM.

Turning to `CSCCCNc1nc(C)c(-c2nc3c(C)nccc3s2)c(N[C@@H]2C[C@H](C(C)(C)O)[C@@H](O)[C@H]2O)n1` [Example 5261], the EC90 is less than 500 nM.

In the case of `Cc1nc(NCCC(C)(C)C)nc(N[C@@H]2C[C@H](C(C)(C)O)[C@@H](O)[C@H]2O)c1-c1nc2c(C)nccc2s1` [Example 5262], the EC90 was less than 500 nM.

`COC[C@@H](C)Nc1nc(C)c(-c2nc3c(C)nccc3s2)c(N[C@@H]2C[C@H](C(C)(C)O)[C@@H](OC)[C@H]2OC)n1` [Example 5263]: the EC90 was less than 500 nM. The result for `CO[C@@H]1[C@H](OC)[C@@H](C(C)(C)O)C[C@H]1Nc1nc(NC[C@@H](C)OC)nc(C)c1-c1nc2c(C)nccc2s1` [Example 5264] reads less than 500 nM; that for `CO[C@@H]1[C@H](OC)[C@@H](C(C)(C)O)C[C@H]1Nc1nc(NCC2CC2)nc(C)c1-c1nc2c(C)nccc2s1` [Example 5265], less than 500 nM. On to `CO[C@@H]1[C@H](OC)[C@@H](C(C)(C)O)C[C@H]1Nc1nc(NCc2c(F)cc(F)cc2F)nc(C)c1-c1nc2c(C)nccc2s1` [Example 5266], for which the EC90 was less than 500 nM. With `CCSCCNc1nc(C)c(-c2nc3c(C)nccc3s2)c(N[C@@H]2C[C@H](C(C)(C)O)[C@@H](OC)[C@H]2OC)n1` [Example 5267], the EC90 is less than 500 nM. Turning to `CO[C@@H]1[C@H](OC)[C@@H](C(C)(C)O)C[C@H]1Nc1nc(N)nc(C)c1-c1nc2c(C)nccc2s1` [Example 5268], the EC90 is less than 500 nM. The result for `CCC(O)(CC)[C@H]1C[C@@H](Nc2nc(NCCC3CC3)nc(C)c2-c2nc3c(C)nccc3s2)[C@H](O)[C@@H]1O` [Example 5269] reads 500 to 5000 nM. With `CCC(O)(CC)[C@H]1C[C@@H](Nc2nc(NCC3(C)CC3)nc(C)c2-c2nc3c(C)nccc3s2)[C@H](O)[C@@H]1O` [Example 5270] the figure was less than 500 nM; with `CCC(O)(CC)[C@H]1C[C@@H](Nc2nc(NC3CCOCC3)nc(C)c2-c2nc3c(C)nccc3s2)[C@H](O)[C@@H]1O` [Example 5271], less than 500 nM; with `CCCCCNc1nc(C)c(-c2nc3c(C)nccc3s2)c(N[C@@H]2C[C@H](C(O)(CC)CC)[C@@H](O)[C@H]2O)n1` [Example 5272], less than 500 nM. With `CCC(O)(CC)[C@H]1C[C@@H](Nc2nc(N)nc(C)c2-c2nc3c(C)nccc3s2)[C@H](O)[C@@H]1O` [Example 5273] the figure was less than 500 nM. Turning to `COC[C@@H](C)Nc1nc(C)c(-c2nc3c(C)nccc3s2)c(N[C@@H]2C[C@H](C(C)(C)OC)[C@@H](O)[C@H]2O)n1` [Example 5274], the EC90 is less than 500 nM. Regarding `CO[C@H](C)CNc1nc(C)c(-c2nc3c(C)nccc3s2)c(N[C@@H]2C[C@H](C(C)(C)OC)[C@@H](O)[C@H]2O)n1` [Example 5275], the EC90 was less than 500 nM. As to `COC(C)(C)[C@H]1C[C@@H](Nc2nc(NCC3CC3)nc(C)c2-c2nc3c(C)nccc3s2)[C@H](O)[C@@H]1O` [Example 5276], the EC90 is less than 500 nM. For `COC(C)(C)[C@H]1C[C@@H](Nc2nc(NCc3c(F)cc(F)cc3F)nc(C)c2-c2nc3c(C)nccc3s2)[C@H](O)[C@@H]1O` [Example 5277], the concentration for an effect of 90% (EC90) is less than 500 nM. With `CCSCCNc1nc(C)c(-c2nc3c(C)nccc3s2)c(N[C@@H]2C[C@H](C(C)(C)OC)[C@@H](O)[C@H]2O)n1` [Example 5278] the figure was less than 500 nM.

Source of the values: patent US9433621B2, “Substituted pyridine and pyrimidine derivatives and their use in treating viral infections” (Merck Sharp & Dohme Corp., priority 2010, dated 2016).
